# Measured values: publication PMC3795068, “Functional Evolution of a Multigene Family: Orthologous and Paralogous Pheromone Receptor Genes in the Turnip Moth, Agrotis segetum” (PLoS ONE, 2013)
# Substitutions are numbered along the chain they refer to.
# Tests used:
# Test in all cases: two-electrode voltage clamp, Xenopus oocytes, inward current
# Type in all cases: cell-based
# AsegOR6 = target: T1, AsegOR6 (Agrotis segetum, UniProt U5KJY6); conditions: agonist; 100 uM stimulus, 20 s, -80 mV, Ringer's pH 7.6, with Orco; dose response curve
# T1 construct: full-length ORF, 430 aa, pCS2+ cRNA co-injected with Orco (473 aa) cRNA in Xenopus laevis oocytes; with Odorant receptor co-receptor (Orco)
# T1 sequence (U5KJY6 1-430): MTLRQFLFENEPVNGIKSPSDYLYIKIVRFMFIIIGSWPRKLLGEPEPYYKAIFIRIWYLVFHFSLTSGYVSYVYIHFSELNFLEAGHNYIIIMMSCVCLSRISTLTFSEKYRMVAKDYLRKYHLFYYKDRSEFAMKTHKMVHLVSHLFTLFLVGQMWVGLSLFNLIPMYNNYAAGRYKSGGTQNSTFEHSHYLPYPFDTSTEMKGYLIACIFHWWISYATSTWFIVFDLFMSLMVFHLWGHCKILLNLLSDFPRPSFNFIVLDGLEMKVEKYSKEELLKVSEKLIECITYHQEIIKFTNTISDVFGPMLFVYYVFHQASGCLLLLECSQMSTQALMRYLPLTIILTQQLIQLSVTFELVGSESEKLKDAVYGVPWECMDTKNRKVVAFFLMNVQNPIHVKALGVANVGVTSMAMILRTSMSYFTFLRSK
# T1 sequence (U5KJY5 1-473 partner): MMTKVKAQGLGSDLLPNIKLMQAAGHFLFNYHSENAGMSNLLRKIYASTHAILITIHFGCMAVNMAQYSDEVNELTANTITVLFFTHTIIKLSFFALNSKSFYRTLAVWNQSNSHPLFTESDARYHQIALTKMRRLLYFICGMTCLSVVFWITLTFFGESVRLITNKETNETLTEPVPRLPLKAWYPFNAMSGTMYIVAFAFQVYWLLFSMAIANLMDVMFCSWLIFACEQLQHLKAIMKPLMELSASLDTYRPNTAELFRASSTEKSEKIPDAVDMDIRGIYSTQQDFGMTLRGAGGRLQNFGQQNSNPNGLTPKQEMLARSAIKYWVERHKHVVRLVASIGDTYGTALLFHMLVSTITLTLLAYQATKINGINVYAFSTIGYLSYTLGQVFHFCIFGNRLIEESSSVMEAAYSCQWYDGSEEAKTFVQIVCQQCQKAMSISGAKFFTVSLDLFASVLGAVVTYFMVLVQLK
# AsegOR8 = target: T2, AsegOR8 (Agrotis segetum, UniProt U5KJT2); conditions: agonist; 100 uM stimulus, 20 s, -80 mV, Ringer's pH 7.6, with Orco; dose response curve
# T2 construct: with Odorant receptor co-receptor (Orco)
# T2 sequence (U5KJT2 1-430): T1 sequence (U5KJY6 1-430) with P48S, K51Q, I53V, L60F, L279S, K368R, T425A
# T2 sequence (U5KJY5 1-473 partner): T1 sequence (U5KJY5 1-473 partner)
# AsegOR4 = target: T3, AsegOR4 (Agrotis segetum, UniProt U5KJQ7); conditions: agonist; 100 uM stimulus, 20 s, -80 mV, Ringer's pH 7.6, with Orco; dose response curve
# T3 construct: full-length ORF, 424 aa, pCS2+ cRNA co-injected with Orco (473 aa) cRNA in Xenopus laevis oocytes; with Odorant receptor co-receptor (Orco)
# T3 sequence (U5KJQ7 1-424): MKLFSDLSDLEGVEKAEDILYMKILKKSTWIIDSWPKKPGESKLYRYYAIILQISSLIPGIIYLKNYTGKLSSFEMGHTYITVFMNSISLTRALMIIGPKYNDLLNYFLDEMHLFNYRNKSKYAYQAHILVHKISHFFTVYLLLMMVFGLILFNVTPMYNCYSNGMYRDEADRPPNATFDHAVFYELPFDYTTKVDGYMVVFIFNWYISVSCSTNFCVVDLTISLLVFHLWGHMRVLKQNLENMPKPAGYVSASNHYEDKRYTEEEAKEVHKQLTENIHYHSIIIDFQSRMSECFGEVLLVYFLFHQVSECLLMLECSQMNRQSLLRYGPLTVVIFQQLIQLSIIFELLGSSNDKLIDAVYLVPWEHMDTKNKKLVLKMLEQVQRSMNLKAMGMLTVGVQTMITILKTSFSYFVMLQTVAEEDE
# T3 sequence (U5KJY5 1-473 partner): T1 sequence (U5KJY5 1-473 partner)
# AsegOR3 = target: T4, AsegOR3 (Agrotis segetum, UniProt U5KJT1); conditions: agonist; 100 uM stimulus, 20 s, -80 mV, Ringer's pH 7.6, with Orco
# T4 construct: full-length ORF, 435 aa, pCS2+ cRNA co-injected with Orco (473 aa) cRNA in Xenopus laevis oocytes; with Odorant receptor co-receptor (Orco)
# T4 sequence (U5KJT1 1-435): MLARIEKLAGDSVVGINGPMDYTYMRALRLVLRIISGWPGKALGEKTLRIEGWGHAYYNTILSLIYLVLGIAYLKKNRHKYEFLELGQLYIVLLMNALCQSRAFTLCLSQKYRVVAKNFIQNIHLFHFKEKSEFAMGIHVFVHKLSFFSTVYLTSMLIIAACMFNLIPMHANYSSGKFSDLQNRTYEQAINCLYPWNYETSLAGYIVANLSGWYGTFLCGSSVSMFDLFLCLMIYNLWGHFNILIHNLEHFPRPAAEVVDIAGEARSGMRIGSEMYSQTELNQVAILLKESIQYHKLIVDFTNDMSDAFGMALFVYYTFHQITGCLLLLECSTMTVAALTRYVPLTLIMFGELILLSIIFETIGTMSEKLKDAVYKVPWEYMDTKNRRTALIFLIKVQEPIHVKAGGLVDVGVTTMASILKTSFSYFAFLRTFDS
# T4 sequence (U5KJY5 1-473 partner): T1 sequence (U5KJY5 1-473 partner)
# AsegOR5 = target: T5, AsegOR5 (Agrotis segetum, UniProt U5KJI3); conditions: agonist, 100 uM stimulus, 20 s, -80 mV, Ringer's pH 7.6, with Orco
# T5 construct: full-length ORF, 443 aa, pCS2+ cRNA co-injected with Orco (473 aa) cRNA in Xenopus laevis oocytes; with Odorant receptor co-receptor (Orco)
# T5 sequence (U5KJI3 1-443): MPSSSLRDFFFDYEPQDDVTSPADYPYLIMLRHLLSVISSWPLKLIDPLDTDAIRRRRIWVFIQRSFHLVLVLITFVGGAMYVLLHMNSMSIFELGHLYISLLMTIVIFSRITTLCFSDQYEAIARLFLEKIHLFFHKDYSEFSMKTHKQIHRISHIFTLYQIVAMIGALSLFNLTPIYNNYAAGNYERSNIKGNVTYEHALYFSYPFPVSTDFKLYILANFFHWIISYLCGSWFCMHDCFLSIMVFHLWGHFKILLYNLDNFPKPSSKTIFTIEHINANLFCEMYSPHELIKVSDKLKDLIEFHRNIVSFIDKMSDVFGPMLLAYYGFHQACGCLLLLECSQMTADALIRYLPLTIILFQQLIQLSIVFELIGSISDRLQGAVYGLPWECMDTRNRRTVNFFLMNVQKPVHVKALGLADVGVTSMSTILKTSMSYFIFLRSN
# T5 sequence (U5KJY5 1-473 partner): T1 sequence (U5KJY5 1-473 partner)
# AsegOR7 = target: T6, AsegOR7 (Agrotis segetum, UniProt U5KK33); conditions: agonist; 100 uM stimulus, 20 s, -80 mV, Ringer's pH 7.6, with Orco
# T6 construct: with Odorant receptor co-receptor (Orco)
# T6 sequence (U5KK33 1-432): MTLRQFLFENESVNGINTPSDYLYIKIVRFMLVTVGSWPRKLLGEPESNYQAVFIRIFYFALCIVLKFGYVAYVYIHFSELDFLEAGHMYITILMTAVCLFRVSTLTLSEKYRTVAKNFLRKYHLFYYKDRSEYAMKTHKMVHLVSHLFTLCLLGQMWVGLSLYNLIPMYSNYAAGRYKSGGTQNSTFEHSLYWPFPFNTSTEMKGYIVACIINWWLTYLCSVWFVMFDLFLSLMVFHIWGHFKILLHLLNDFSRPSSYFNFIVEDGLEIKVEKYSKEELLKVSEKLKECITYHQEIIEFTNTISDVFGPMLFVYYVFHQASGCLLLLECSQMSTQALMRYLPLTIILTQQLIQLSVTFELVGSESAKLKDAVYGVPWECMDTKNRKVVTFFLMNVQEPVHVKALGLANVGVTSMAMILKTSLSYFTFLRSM
# T6 sequence (U5KJY5 1-473 partner): T1 sequence (U5KJY5 1-473 partner)
# AsegOR10 = target: T7, AsegOR10 (Agrotis segetum, UniProt U5KJI4); conditions: agonist, 100 uM stimulus, 20 s, -80 mV, Ringer's pH 7.6, with Orco
# T7 construct: full-length ORF, 432 aa, pCS2+ cRNA co-injected with Orco (473 aa) cRNA in Xenopus laevis oocytes; with Odorant receptor co-receptor (Orco)
# T7 sequence (U5KJI4 1-432): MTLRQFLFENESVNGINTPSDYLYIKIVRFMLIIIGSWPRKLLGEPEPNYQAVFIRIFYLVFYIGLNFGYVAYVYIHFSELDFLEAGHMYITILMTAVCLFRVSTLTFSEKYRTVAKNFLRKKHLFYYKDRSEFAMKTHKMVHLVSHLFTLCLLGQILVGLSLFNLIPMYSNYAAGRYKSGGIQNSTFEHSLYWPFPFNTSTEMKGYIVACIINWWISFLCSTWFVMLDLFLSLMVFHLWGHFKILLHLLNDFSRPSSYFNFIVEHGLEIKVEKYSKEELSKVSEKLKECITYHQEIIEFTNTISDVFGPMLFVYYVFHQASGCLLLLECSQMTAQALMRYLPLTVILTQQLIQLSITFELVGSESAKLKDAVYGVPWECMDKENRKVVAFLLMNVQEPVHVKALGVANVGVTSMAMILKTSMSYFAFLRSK
# T7 sequence (U5KJY5 1-473 partner): T1 sequence (U5KJY5 1-473 partner)
# AsegOR9 = target: T8, AsegOR9 (Agrotis segetum, UniProt U5KJQ9); conditions: agonist; 100 uM stimulus, 20 s, -80 mV, Ringer's pH 7.6, with Orco; dose response curve
# T8 construct: full-length ORF, 433 aa, pCS2+ cRNA co-injected with Orco (473 aa) cRNA in Xenopus laevis oocytes; with Odorant receptor co-receptor (Orco)
# T8 sequence (U5KJQ9 1-433): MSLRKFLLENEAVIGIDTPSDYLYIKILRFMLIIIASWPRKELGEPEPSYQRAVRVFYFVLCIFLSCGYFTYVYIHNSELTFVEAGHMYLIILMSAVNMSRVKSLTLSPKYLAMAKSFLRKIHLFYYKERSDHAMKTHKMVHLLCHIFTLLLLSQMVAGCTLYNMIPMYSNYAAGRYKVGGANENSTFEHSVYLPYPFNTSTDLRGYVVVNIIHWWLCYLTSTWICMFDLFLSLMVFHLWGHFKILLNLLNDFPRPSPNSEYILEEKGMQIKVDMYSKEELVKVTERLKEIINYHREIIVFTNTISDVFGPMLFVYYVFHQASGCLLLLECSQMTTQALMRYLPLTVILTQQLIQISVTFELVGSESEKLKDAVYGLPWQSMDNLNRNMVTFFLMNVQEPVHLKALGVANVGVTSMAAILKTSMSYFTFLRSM
# T8 sequence (U5KJY5 1-473 partner): T1 sequence (U5KJY5 1-473 partner)
# AsegOR1 = target: T9, AsegOR1 (Agrotis segetum, UniProt U5KK32); conditions: agonist; 100 uM stimulus, 20 s, -80 mV, Ringer's pH 7.6, with Orco; dose response curve
# T9 construct: full-length ORF, 432 aa, pCS2+ cRNA co-injected with Orco (473 aa) cRNA in Xenopus laevis oocytes; with Odorant receptor co-receptor (Orco)
# T9 sequence (U5KK32 1-432): T6 sequence (U5KK33 1-432) with M31L, V33I, F101S, V103I, T114M, R131H, Y134L, V376I, T383K, K384E
# T9 sequence (U5KJY5 1-473 partner): T1 sequence (U5KJY5 1-473 partner)
smiles,measurement,setting,value
CCCC/C=C\CCCCO [Z5-10:OH],"two-electrode voltage clamp, Xenopus oocytes, inward current",AsegOR6,oocytes that showed the strongest response to another antagonist Z5-10:OH
same,"two-electrode voltage clamp, Xenopus oocytes, inward current",AsegOR8,Two of them (AsegOR6 and AsegOR8) showed strong responses to Z5-10:OH (Figure 5B)
CCCC/C=C\CCCCCCOC(C)=O [Z7-12:OAc],"two-electrode voltage clamp, Xenopus oocytes, inward current",AsegOR4,AsegOR4 (Cluster IV) was specifically responsive to the pheromone component Z7-12:OAc
same,"two-electrode voltage clamp, Xenopus oocytes, inward current",AsegOR3,albeit with Z7-12:OAc standing out as the most active one
same,"two-electrode voltage clamp, Xenopus oocytes, inward current",AsegOR5,a much smaller response to Z7-12:OAc and marginal responses to other tested compounds
same,"two-electrode voltage clamp, Xenopus oocytes, inward current",AsegOR7,receptors for Z8-12:OAc and Z7-12:OAc (AsegOR1 and AsegOR7)
CCCC/C=C\CCCCCCCCOC(C)=O [Z9-14:OAc],"two-electrode voltage clamp, Xenopus oocytes, inward current",AsegOR5; dose response curve,AsegOR5 (Cluster II) showed the largest response to Z9-14:OAc
same,"two-electrode voltage clamp, Xenopus oocytes, inward current",AsegOR10,AsegOR10 responded to Z9-14:OAc and Z5-10:OAc but with low sensitivity
CCC/C=C\CCCCCCCOC(C)=O [Z8-12:OAc],"two-electrode voltage clamp, Xenopus oocytes, inward current",AsegOR7,receptors for Z8-12:OAc and Z7-12:OAc (AsegOR1 and AsegOR7)
CCCC/C=C\CCCCOC(C)=O [Z5-10:OAc],"two-electrode voltage clamp, Xenopus oocytes, inward current",AsegOR9,co-expressing AsegOR9 (Cluster I) and Aseg\Orco robustly and specifically responded to Z5-10:OAc
same,"two-electrode voltage clamp, Xenopus oocytes, inward current",AsegOR8,Different sensitivities of the six paralogues to the main pheromone component Z5-10:OAc
same,"two-electrode voltage clamp, Xenopus oocytes, inward current",AsegOR10; dose response curve,AsegOR10 responded to Z9-14:OAc and Z5-10:OAc but with low sensitivity
same,"two-electrode voltage clamp, Xenopus oocytes, inward current",AsegOR1,Oocytes co-expressing AsegOR1 and Aseg\Orco also responded to Z5-10:OAc
